Experimental findings from patent US20260035360A1, “INHIBITORS OF MYC AND USES THEREOF” (Northwestern University, priority 2022, published 2026) are described below.

Assay type in all cases: cell-based
The test system of one assay is PC3 cells. Kind of assay: PC3 cell viability, CellTitreGlo Assay, 72 hrs. Conditions: Homo sapiens, PC-3. Here is the method: (§1) Table 2. Biological data of selected compounds. For IC50 determination. PC3 and PC12 cells were treated with increasing concentrations of the indicated compounds for 72 hrs and cell viability assessed using CellTitreGlo Assay (Promega). For MYC and ATF4 protein level determination. PC3 cells were treated with the indicated compounds for 24 hr sand cell lysates processed for western blot with MYC and ATF4 antibodies using Actin as a control. Quantification analyses were performed by Biorad ChemiDoc Imager and Bio-Rad Image Lab software.

The next assay relates to PC12 cells. The assay can be described thus: PC12 cell viability, CellTitreGlo Assay, 72 hrs. Conditions: Rattus norvegicus, PC-12. As for the experimental part:
as §1

For a further assay, the target named is T1, MYC (Homo sapiens, UniProt P01106).
T1 construct: endogenous in cells; host or cells: PC3 cells
T1 sequence (P01106 whole entry): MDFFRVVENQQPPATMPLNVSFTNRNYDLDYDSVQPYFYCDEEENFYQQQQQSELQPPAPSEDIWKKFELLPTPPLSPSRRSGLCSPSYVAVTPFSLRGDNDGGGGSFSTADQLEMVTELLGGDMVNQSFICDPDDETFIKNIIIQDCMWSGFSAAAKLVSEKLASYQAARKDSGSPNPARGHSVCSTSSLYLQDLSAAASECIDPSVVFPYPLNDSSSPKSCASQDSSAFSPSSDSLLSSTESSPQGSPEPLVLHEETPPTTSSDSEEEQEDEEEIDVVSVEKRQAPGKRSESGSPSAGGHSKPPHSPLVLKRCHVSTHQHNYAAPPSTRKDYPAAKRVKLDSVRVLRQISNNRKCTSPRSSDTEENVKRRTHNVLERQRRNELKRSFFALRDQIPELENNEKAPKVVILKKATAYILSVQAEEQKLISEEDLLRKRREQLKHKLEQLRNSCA
Kind of assay: MYC protein level in PC3 cells by western blot, 24 hr. The note with it: PC-3, 24 h, PC3, 24 h, Actin control, read-out: Relative MYC protein at 10 μM (%, PC3 24 h). As for the experimental part: as §1
Background: Immunoblotting shows a protein as a band on a membrane.

The next assay relates to ATF4. The assay can be described thus: ATF4 protein level in PC3 cells by western blot, 24 hr. Conditions: Homo sapiens, PC-3, PC3, 24 h, Actin control, read-out: Relative ATF4 protein at 10 μM (fold change, PC3 24 h). As for the experimental part:
as §1

For the compound `Cn1nc(C(F)(F)F)cc1-c1ccc(N(CC23CC4CC(CC(C4)C2)C3)C(=O)c2ccc(Cl)c(C(F)(F)F)c2)cc1O` [NUCC-0226225], the IC50 in the assay with PC3 cells is 2.1 µM; in the assay on PC12 cells it was 14.5 µM. Also, the remaining activity at 10 µM at MYC is 28.4%. The fold induction at 10 µM in the assay with ATF4 was found to be 15.2.

In the assay with PC3 cells, `CC(=O)N[C@@H](C(=O)N1C[C@@H](O)C[C@@H]1C(=O)NCc1ccc(-c2scnc2C)cc1OCCOCCNC(=O)CCOCCCN(C(=O)c1ccc(Cl)c(C(F)(F)F)c1)c1ccc(-c2cc(C(F)(F)F)nn2C)c(O)c1)C(C)(C)C` [NUCC-0226290] came in with an IC50 of 5.1 µM. Besides, the remaining activity at 10 µM on MYC was determined as 27.4%. Also, the fold induction at 10 µM in the assay on ATF4 is 2.9.

In the case of `Cc1ncsc1-c1ccc(CNC(=O)[C@@H]2C[C@H](O)CN2C(=O)[C@H](NC(=O)COCCNC(=O)CCOCCCN(C(=O)c2ccc(Cl)c(C(F)(F)F)c2)c2ccc(-c3cc(C(F)(F)F)nn3C)c(O)c2)C(C)(C)C)cc1` [NUCC-0226291], the IC50 with PC3 cells stood at 4 µM; in the assay with PC12 cells it was 14.6 µM. Further, at MYC, the remaining activity at 10 µM was 54.6%. Moreover, in the assay with ATF4, the fold induction at 10 µM was 1.8.

On to `CN1C(=O)CCC(N2C(=O)c3cccc(NCCOCCOCCNC(=O)CCOCCCN(C(=O)c4ccc(Cl)c(C(F)(F)F)c4)c4ccc(-c5cc(C(F)(F)F)nn5C)c(O)c4)c3C2=O)C1=O` (centres unmarked) [NUCC-0226292], for which, in the assay on PC3 cells, the 50% inhibitory concentration (IC50) stood at 10.1 µM. At MYC, the remaining activity at 10 µM was 65.1%. Moreover, in the assay on ATF4, the fold induction at 10 µM was found to be 1.1.

In the assay with PC3 cells, `Cn1nc(C(F)(F)F)cc1-c1ccc(N(CCCOCCC(=O)NCCOCCOCCNc2ccc3c(c2)C(=O)N(C2CCC(=O)NC2=O)C3=O)C(=O)c2ccc(Cl)c(C(F)(F)F)c2)cc1O` (centres unmarked) [NUCC-0226293] showed an IC50 of 4.7 µM. Moreover, at MYC, the remaining activity at 10 µM is 18.4%. For the same compound, in the assay with ATF4, the fold induction at 10 µM was 3.6.

Regarding `Cc1ncsc1-c1ccc(CNC(=O)[C@@H]2C[C@@H](O)CN2C(=O)[C@@H](NCCOCCNC(=O)CCOCCCOc2ccc(-c3cc(C(F)(F)F)nn3C)c(O)c2-c2ccc(Cl)c(C(F)(F)F)c2)C(C)(C)C)cc1` [NUCC-0226303], in the assay with PC3 cells, the concentration for half-maximal inhibition (IC50) amounted to 10.9 µM. Moreover, the remaining activity at 10 µM at MYC was 24%. Also, the fold induction at 10 µM with ATF4 is 1.6.

In the assay with PC3 cells, `CC(C)Cc1ccc(COc2ccc(-c3cc(C(F)(F)F)nn3C)c(O)c2-c2ccc(Cl)c(C(F)(F)F)c2)cc1` [NUCC-0226305] returned an IC50 of 8.4 µM. The remaining activity at 10 µM on MYC was 52.4%. The fold induction at 10 µM in the assay on ATF4 amounted to 2.9.

For the compound `C[C@@H](Oc1ccc(-c2cc(C(F)(F)F)nn2C)c(O)c1-c1ccc(Cl)c(C(F)(F)F)c1)c1ccccc1` [NUCC-0226433], in the assay on PC3 cells, the IC50 is 4 µM. Besides, at MYC, the remaining activity at 10 µM turned out to be 35%. Further, in the assay with ATF4, the fold induction at 10 µM is 10.6.

Regarding `C[C@H](Oc1ccc(-c2cc(C(F)(F)F)nn2C)c(O)c1-c1ccc(Cl)c(C(F)(F)F)c1)c1ccccc1` [NUCC-0226434], the half-inhibitory concentration (IC50) in the assay with PC3 cells was determined as 4.3 µM. Further, on MYC, the remaining activity at 10 µM amounted to 20%. In the assay with ATF4, the fold induction at 10 µM turned out to be 9.4.

In the assay on PC3 cells, `Cc1ccc([C@H](C)Oc2ccc(-c3cc(C(F)(F)F)nn3C)c(O)c2-c2ccc(Cl)c(C(F)(F)F)c2)cc1` [NUCC-0226435] yielded an IC50 of 5.4 µM. Moreover, on MYC, the remaining activity at 10 µM was determined as 47.4%. Further, the fold induction at 10 µM in the assay with ATF4 turned out to be 4.7.

On to `Cc1ccc([C@@H](C)Oc2ccc(-c3cc(C(F)(F)F)nn3C)c(O)c2-c2ccc(Cl)c(C(F)(F)F)c2)cc1` [NUCC-0226436], for which half-maximal inhibition with PC3 cells (IC50) was put at 3.4 µM. Besides, the remaining activity at 10 µM at MYC stood at 30.3%. In addition, the fold induction at 10 µM in the assay on ATF4 worked out at 11.8.

In the assay with PC3 cells, `CC(C)Cc1ccc([C@@H](C)Oc2ccc(-c3cc(C(F)(F)F)nn3C)c(O)c2-c2ccc(Cl)c(C(F)(F)F)c2)cc1` [NUCC-0226437] had an IC50 of 5.4 µM. Further, the remaining activity at 10 µM at MYC was 50.7%. For the same compound, the fold induction at 10 µM in the assay with ATF4 turned out to be 9.

`CC(C)Cc1ccc(C(C)Oc2ccc(-c3cc(C(F)(F)F)cn3C)c(O)c2-c2ccc(Cl)c(C(F)(F)F)c2)cc1` (centres unmarked) [NUCC-0226438] gave an IC50 in the assay on PC3 cells of 5.3 µM. For the same compound, the remaining activity at 10 µM at MYC was found to be 52.3%. Also, in the assay on ATF4, the fold induction at 10 µM amounted to 3.7.

For `Cn1nc(C(F)(F)F)cc1-c1ccc(OCc2ccc(Cl)cc2)c(-c2ccc(Cl)c(Cl)c2)c1O` [NUCC-0226496], the IC50 in the assay with PC3 cells turned out to be 5.3 µM. Moreover, at MYC, the remaining activity at 10 µM worked out at 25.4%. Also, in the assay with ATF4, the fold induction at 10 µM was 10.3.

`Cn1nc(C(F)(F)F)cc1-c1ccc(OCc2ccc(Cl)cc2)c(-c2ccc(Cl)cc2F)c1O` [NUCC-0226497] showed a half-maximal inhibitory concentration (IC50) in the assay with PC3 cells of 24.8 µM. Further, the remaining activity at 10 µM at MYC amounted to 93%. Further, the fold induction at 10 µM in the assay with ATF4 stood at 5.9.

In the case of `Cn1nc(C(F)(F)F)cc1-c1ccc(OCc2ccc(Cl)cc2)c(-c2cccc(F)c2)c1O` [NUCC-0226498], the IC50 with PC3 cells is 40.9 µM. The remaining activity at 10 µM at MYC was 67.8%. Further, in the assay on ATF4, the fold induction at 10 µM was determined as 4.8.

Compound `COc1ccc(-c2c(Cl)c(C(F)(F)F)nn2C)c(O)c1-c1ccc(Cl)c(C(F)(F)F)c1` [NUCC-0226501] registered an IC50 in the assay on PC3 cells of 4.6 µM. Further, the remaining activity at 10 µM at MYC came out at 59.4%. In the assay with ATF4, the fold induction at 10 µM was determined as 9.3.

The compound `Cn1nc(C(F)(F)F)cc1-c1ccc(NC(c2ccccc2)c2ccccc2)c(-c2ccc(Cl)c(C(F)(F)F)c2)c1O` [NUCC-0226502] showed an IC50 in the assay with PC3 cells of 14.1 µM. Besides, the remaining activity at 10 µM on MYC was found to be 122%. The fold induction at 10 µM in the assay on ATF4 was 1.4.

Take `Cn1nc(C(F)(F)F)cc1-c1ccc(OCc2ccc(Cl)cc2)c(-c2ccc(F)c(F)c2)c1O` [NUCC-0226504]: 7.3 µM corresponded to half-maximal inhibition in the assay with PC3 cells (IC50). The remaining activity at 10 µM at MYC turned out to be 32.5%. Moreover, in the assay on ATF4, the fold induction at 10 µM turned out to be 5.2.

As for `Cn1nc(C(F)(F)F)cc1-c1ccc(N)c(-c2ccc(Cl)c(C(F)(F)F)c2)c1O` [NUCC-0226520], in the assay on PC3 cells, the IC50 amounted to 12.7 µM. In addition, the remaining activity at 10 µM at MYC was 67.5%. In addition, the fold induction at 10 µM with ATF4 came out at 1.1.

With `CNc1ccc(-c2cc(C(F)(F)F)nn2C)c(O)c1-c1ccc(Cl)c(C(F)(F)F)c1` [NUCC-0226527], in the assay with PC3 cells, it took 6.2 µM to reach half-maximal inhibition (IC50). In addition, the remaining activity at 10 µM at MYC turned out to be 50.8%. Besides, the fold induction at 10 µM in the assay with ATF4 amounted to 1.2.

`Cn1nc(C(F)(F)F)cc1-c1ccc(Cc2ccc(Cl)cc2)c(-c2ccc(Cl)c(C(F)(F)F)c2)c1O` [NUCC-0226566] returned an IC50 in the assay with PC3 cells of 3.88 µM. In addition, the remaining activity at 10 µM at MYC worked out at 43.7%. Also, in the assay on ATF4, the fold induction at 10 µM is 10.5.

In the assay on PC3 cells, `Cn1nc(C(F)(F)F)cc1-c1ccc(CCc2ccc(Cl)cc2)c(-c2ccc(Cl)c(C(F)(F)F)c2)c1O` [NUCC-0226574] came in with an IC50 of 3.59 µM. The remaining activity at 10 µM at MYC was found to be 43.7%. Also, the fold induction at 10 µM in the assay on ATF4 was 12.

Turning to `CC(C)n1nc(C(F)(F)F)cc1-c1ccc(OCc2ccc(Cl)cc2)c(-c2ccc(Cl)c(C(F)(F)F)c2)c1O` [NUCC-0226657], it took 7.51 µM to reach half-maximal inhibition in the assay on PC3 cells (IC50). For the same compound, on MYC, the remaining activity at 10 µM was found to be 56.6%. For the same compound, in the assay on ATF4, the fold induction at 10 µM was 7.7.

In the assay with PC3 cells, `Cn1nc(C(N)=O)cc1-c1cc(Cl)c(COc2ccc(Cl)cc2)c(-c2ccc(Cl)c(C(F)(F)F)c2)c1O` [NUCC-0227066] displayed an IC50 of 8.53 µM. At MYC, the remaining activity at 10 µM turned out to be 84.2%. Further, the fold induction at 10 µM in the assay with ATF4 worked out at 3.9.

By IC50 is commonly meant the midpoint of a concentration-inhibition curve. Read a low IC50 as higher potency.
